Experiment: CHX and PLS release into storage solution
Format: physicochemical
Conditions: in water over a period of 6 weeks
Description: CHX and PLS release into sample storage solutions were quantified using UV spectrometry (Mehdawi 2009, Zhao 2011) and HPLC respectively.
Reactive filler composites containing PLS were prepared as 1 mm thick composite discs. The fluid phase contained 70% UDMA, 25% TEG-DMA, 5% HEMA, 300 ppm BHT, DMPT 0.5%, BP 0.5%. 25 wt % of this fluid phase was combined with 75 wt % powder filler. The filler contained polylysine (1 or 10 wt %), chlorhexidine (0 or 10 wt %), MCPM/TCP (CaP=10 or 20 wt %) and the remainder glass particles (Sci Pharm).

## ε-poly-L-lysine [PLS]
  percentage released from 1 mm thick composite discs: over 70%
